Data as given in PubChem BioAssay (NCI).
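Abbreviation: GI50, concentration required for 50% inhibition of growth. At the TGI there is no net growth.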

Experiments:
Assay in all cases: NCI tumour cell line growth inhibition, 384-well format
U251 glioblastoma = test system: U251 glioblastoma
SW-620 colon = test system: SW-620 colon
RXF 393 renal = test system: RXF 393 renal
SK-MEL-5 melanoma = test system: SK-MEL-5 melanoma
HCT-116 colon = test system: HCT-116 colon
T-47D breast = test system: T-47D breast
KM12 colon = test system: KM12 colon
MDA-MB-435 melanoma = test system: MDA-MB-435 melanoma
UACC-62 melanoma = test system: UACC-62 melanoma
SK-MEL-2 melanoma = test system: SK-MEL-2 melanoma
MOLT-4 leukemia = test system: MOLT-4 leukemia
MALME-3M melanoma = test system: MALME-3M melanoma
A498 renal = test system: A498 renal

SMILES: COCc1c(-c2cc3cc(C)cc(OC)c3s2)c2c(N)ncnn2c1CN1CCNC(=O)C1
- GI50 (U251 glioblastoma): 12.1 µM
- TGI (U251 glioblastoma): > 100 µM
- GI50 (SW-620 colon): 3.27 µM
- TGI (SW-620 colon): > 23.1 µM
- GI50 (RXF 393 renal): 1.19 µM
- TGI (RXF 393 renal): 8.32 µM
- GI50 (SK-MEL-5 melanoma): 7.29 µM
- TGI (SK-MEL-5 melanoma): 31.3 µM
- GI50 (HCT-116 colon): 7.4 µM
- TGI (HCT-116 colon): > 100 µM
- GI50 (T-47D breast): 15.1 µM
- TGI (T-47D breast): > 94.7 µM
- GI50 (KM12 colon): 9.87 µM
- TGI (KM12 colon): > 100 µM
- GI50 (MDA-MB-435 melanoma): 11.8 µM
- TGI (MDA-MB-435 melanoma): 72.2 µM
- GI50 (UACC-62 melanoma): 6.36 µM
- TGI (UACC-62 melanoma): 37 µM
- GI50 (SK-MEL-2 melanoma): 4.38 µM
- TGI (SK-MEL-2 melanoma): 13.6 µM
- GI50 (MOLT-4 leukemia): 2.68 µM
- TGI (MOLT-4 leukemia): 8.5 µM
- GI50 (MALME-3M melanoma): 4.55 µM
- TGI (MALME-3M melanoma): 32.6 µM
- GI50 (A498 renal): 3.32 µM
- TGI (A498 renal): 40.5 µM
